The values below come from patent publication US4794169A, “Pentapeptides with cell growth regulatory effects and a process for the preparation thereof” (Bio-Tech A/S, priority 1985, dated 1988).

The experiment deals with mouse epidermal mitotic rate. The experiment is described as follows: Change in mouse epidermal mitotic rate after intraperitoneal injection (Colcemid method). To be noted: mouse epidermis, first three hours after i.p. injection, vs control animals from same cage. Format: in vivo. How it is done: In the following Table 1 in vivo results (change in mouse epidermal mitotic rate) have been described as example for four different new pentapeptides. The epidermal mitotic rate was measured for the first three hours after intraperitoneal injection of the new pentapeptides. Mitotic rate was determined by means of "Colcemid" (Demecolcine). A reduced rate was determined as a percentage in comparison with control animals from the same cage.

Square brackets hold non-standard residues; d marks the D form. Peptide text beside a SMILES is read from it. pGlu = O=C1CC[C@@H](C(=O)O)N1

In the case of `C[C@H](NC(=O)[C@H](CC(=O)O)NC(=O)[C@H](CCC(=O)O)NC(=O)[C@@H]1CCC(=O)N1)C(=O)NCC(=O)O` [Compound 3, pGlu--Glu--Asp--Ala--Gly] ([pGlu]EDAG-OH), under “10^-13 moles of peptide injected per mouse”, the “Decrease in mitotic rate %” value is given as 36%.
`NC(=O)CC[C@H](NC(=O)[C@@H]1CCC(=O)N1)C(=O)N[C@@H](CC(=O)O)C(=O)N[C@@H](CO)C(=O)NCC(=O)O` [Compound 2, pGlu--Gln--Asp--Ser--Gly] ([pGlu]QDSG-OH): under “10^-11 moles of peptide injected per mouse”, the “Decrease in mitotic rate %” value turned out to be 39%.
As to `O=C(O)CC[C@H](NC(=O)[C@@H]1CCC(=O)N1)C(=O)N[C@@H](CC(=O)O)C(=O)N[C@@H](CO)C(=O)NCC(=O)O` [Compound 1, pGlu--Glu--Asp--Ser--Gly] ([pGlu]EDSG-OH), the “Decrease in mitotic rate %” value (10^-11 -10^-14 moles of peptide injected per mouse) is 40-44%.
